Measured values from US8580965B2, “Substituted sulfonamide compounds” (Gruenenthal GmbH, priority 2006, dated 2013).

What was measured:
[1] = target: T1, human B1R receptor (bradykinin 1 receptor) (Homo sapiens, UniProt P46663); assay: FLIPR Ca2+ assay (Fluo-4) on CHO K1 cells stably transfected with the human B1R gene; % activation and % inhibition at 10 μM; format: cell-based; details: CHO-K1, test substance 10 μM; CHO K1 hB1R cells; Ca2+ inflow after 0.5 nM Lys-Des-Arg9-bradykinin; read-out: B1R antagonism, human [10 μM] % inhibition
T1 construct: host or cells: CHO K1 cells (hB1R cells)
T1 sequence (P46663 1-353): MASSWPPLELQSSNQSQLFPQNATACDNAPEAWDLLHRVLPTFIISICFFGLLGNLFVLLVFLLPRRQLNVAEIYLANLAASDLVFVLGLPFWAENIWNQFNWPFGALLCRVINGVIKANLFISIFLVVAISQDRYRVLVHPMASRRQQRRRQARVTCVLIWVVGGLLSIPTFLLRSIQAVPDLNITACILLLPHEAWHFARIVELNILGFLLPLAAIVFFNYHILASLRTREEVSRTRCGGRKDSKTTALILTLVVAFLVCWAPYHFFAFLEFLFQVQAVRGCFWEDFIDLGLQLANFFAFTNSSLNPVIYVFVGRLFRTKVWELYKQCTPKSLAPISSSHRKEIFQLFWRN
Procedure, shortened: (§1)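 CHO K1 cells stably expressing human or rat B1R, Fluo-4 loaded, read by FLIPR (peak fluorescence). Compound at 10 µM first gives % activation versus agonist; after 10 min, agonist (human: 0.5 nM Lys-Des-Arg9-bradykinin; rat: 100 nM Des-Arg9-bradykinin) gives % inhibition relative to maximal inhibition.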

[2] = target: T2, B1R receptor of the rat (bradykinin 1 receptor) (Rattus norvegicus, UniProt P97583); assay: FLIPR Ca2+ assay (Fluo-4) on CHO K1 cells stably transfected with the B1R gene of the rat; % activation and % inhibition at 10 μM; format: cell-based; details: CHO-K1, test substance 10 μM; CHO K1 rB1R cells; Ca2+ inflow after 100 nM Des-Arg9-bradykinin; read-out: B1R antagonism, rat [10 μM] % inhibition
T2 construct: host or cells: CHO K1 cells (rB1R cells)
T2 sequence (P97583 1-337): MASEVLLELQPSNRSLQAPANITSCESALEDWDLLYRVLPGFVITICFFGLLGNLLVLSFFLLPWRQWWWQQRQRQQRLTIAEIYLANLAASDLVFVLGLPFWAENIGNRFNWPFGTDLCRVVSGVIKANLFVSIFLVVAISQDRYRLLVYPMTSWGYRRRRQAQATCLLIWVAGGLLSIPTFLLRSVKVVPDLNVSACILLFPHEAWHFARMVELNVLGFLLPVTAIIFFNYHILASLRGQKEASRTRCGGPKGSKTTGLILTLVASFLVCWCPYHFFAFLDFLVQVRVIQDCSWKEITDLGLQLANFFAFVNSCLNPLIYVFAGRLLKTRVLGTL
Procedure, shortened: as §1

| SMILES | inhibition at 10 µM [1] [%] | inhibition at 10 µM [2] [%] |
| --- | --- | --- |
| O=C(COCC1CCCN1S(=O)(=O)c1cc(Cl)sc1Cl)N1CCC(O)(c2cccnc2)CC1 (stereo not shown) [Example 203, 2-((1-(2,5-dichlorothiophen-3-ylsulfonyl)pyrrolidin-2-yl)methoxy)-1-(4-hydroxy-4-(pyridin-3-yl)piperidin-1-yl)ethanone] | 84.2 | 85.1 |
| O=C(COCC1Cc2ccccc2CN1S(=O)(=O)c1ccccc1)N1CCC(O)(c2ccccn2)CC1 (stereo not shown) [Example 73, 2-(2-phenylsulfonyl-1,2,3,4-tetrahydro-isoquinolin-3-ylmethoxy)-1-(4′-hydroxy-3′,4′,5′,6′-tetrahydro-2′H-[2,4′]bipyridinyl-1′-yl)-ethanone] | -7.27 | 14.4 |
| O=C(COCC1CCCN1S(=O)(=O)c1cc(Cl)sc1Cl)N1CCC(O)(c2cccc(C(F)(F)F)c2)CC1 (stereo not shown) [Example 227, 2-((1-(2,5-dichlorothiophen-3-ylsulfonyl)pyrrolidin-2-yl)methoxy)-1-(4-hydroxy-4-(3-(trifluoromethyl)phenyl)piperidin-1-yl)ethanone] | 7.61 | 80.9 |
| Cc1cc(Cl)cc(Cl)c1S(=O)(=O)N(C)CCOCC(=O)N1CCC(O)(c2ccccc2)CC1 [Example 105, 2,4-dichloro-N-(2-(2-(4-hydroxy-4-phenylpiperidin-1-yl)-2-oxoethoxy)ethyl)-N,6-dimethylphenylsulfonamide] | 98.6 | 96.1 |
| Cc1cc(S(=O)(=O)N2CCCCC2CCC(=O)N2CCC(O)(c3cccc(F)c3)CC2)c(C)cc1Cl (stereo not shown) [Example 120, 3-(1-(4-chloro-2,5-dimethylphenylsulfonyl)piperidin-2-yl)-1-(4-(3-fluorophenyl)-4-hydroxypiperidin-1-yl)propan-1-one] | 58.4 | 45.9 |
| CN(CCOCC(=O)N1CCC(O)(c2ccc(Br)cc2)CC1)S(=O)(=O)c1cc(Cl)sc1Cl [Example 261, N-(2-(2-(4-(4-bromophenyl)-4-hydroxypiperidin-1-yl)-2-oxoethoxy)ethyl)-2,5-dichloro-N-methylthiophene-3-sulfonamide] | 87.8 | 98.5 |
| Cc1cc(S(=O)(=O)N(C)CCOCC(=O)N2CCC(O)(c3ccccc3)CC2)c(C)cc1Cl [Example 152, 4-chloro-N-(2-(2-(4-hydroxy-4-phenylpiperidin-1-yl)-2-oxoethoxy)ethyl)-N,2,5-trimethylphenylsulfonamide] | 81.6 | 77.2 |
| CN(CCOCC(=O)N1CCC(O)(c2ccccn2)CC1)S(=O)(=O)c1cc(F)cc(F)c1 [Example 70, 3,5-difluoro-N-{2-[2-(4′-hydroxy-3′,4′,5′,6′-tetrahydro-2′H-[2,4′]bipyridinyl-1′-yl)-2-oxo-ethoxy]-ethyl}-N-methyl-phenylsulfonamide] | 7.12 | -12.2 |
| O=C(COCC1CCCCN1S(=O)(=O)c1c(Cl)cc(C(F)(F)F)cc1Cl)N1CCC(O)(c2ccccc2)CC1 (stereo not shown) [Example 162, 2-((1-(2,6-dichloro-4-(trifluoromethyl)phenylsulfonyl)piperidin-2-yl)methoxy)-1-(4-hydroxy-4-phenylpiperidin-1-yl)ethanone] | 24.6 | 105 |
| COc1ccc(S(=O)(=O)N2CCCCC2CCOCC(=O)N2CCC(O)(c3ccccn3)CC2)cc1 (stereo not shown) [Example 44, 1-(4′-hydroxy-3′,4′,5′,6′-tetrahydro-2′H-[2,4′]bipyridinyl-1′-yl)-2-{2-[1-(4-methoxy-phenylsulfonyl)-piperidin-2-yl]-ethoxy}-ethanone] | -2.3 | 76.6 |
| COc1cc(C)c(S(=O)(=O)N(CCOCC(=O)N2CCC(O)(c3ccc(Br)cc3)CC2)CC2CC2)c(C)c1C [Example 205, N-(2-(2-(4-(4-bromophenyl)-4-hydroxypiperidin-1-yl)-2-oxoethoxy)ethyl)-N-(cyclopropylmethyl)-4-methoxy-2,3,6-trimethylphenylsulfonamide] | 106 | 100 |
| O=C(COCC1CCCN1S(=O)(=O)c1c(Cl)cccc1Cl)N1CCC(O)(Cc2ccccc2)CC1 (stereo not shown) [Example 221, 1-(4-benzyl-4-hydroxypiperidin-1-yl)-2-((1-(2,6-dichlorophenylsulfonyl)pyrrolidin-2-yl)methoxy)ethanone] | 23.5 | 89.5 |
| COc1cc(C)c(S(=O)(=O)N(CCOCC(=O)N2CCC(O)(c3cccc(C(F)(F)F)c3)CC2)CC2CC2)c(C)c1C [Example 208, N-(cyclopropylmethyl)-N-(2-(2-(4-hydroxy-4-(3-(trifluoromethyl)phenyl)-piperidin-1-yl)-2-oxoethoxy)ethyl)-4-methoxy-2,3,6-trimethylphenylsulfonamide] | 106 | 100 |
| Cc1cc(S(=O)(=O)N(C)CCOCC(=O)N2CCC(O)(c3cccnc3)CC2)c(C)cc1Cl [Example 149, 4-chloro-N-(2-(2-(4-hydroxy-4-(pyridin-3-yl)piperidin-1-yl)-2-oxoethoxy)ethyl)-N,2,5-trimethylphenylsulfonamide] | 99.1 | 100 |
| Cc1cc(S(=O)(=O)N(C)CCOCC(=O)N2CCC(O)(c3ccc(Cl)cc3)CC2)c(C)cc1Cl [Example 150, 4-chloro-N-(2-(2-(4-(4-chlorophenyl)-4-hydroxypiperidin-1-yl)-2-oxoethoxy)ethyl)-N,2,5-trimethylphenylsulfonamide] | 95.3 | 93.7 |
| Cc1cc(S(=O)(=O)N2CCCCC2COCC(=O)N2CCC(O)(c3cccnc3)CC2)c(C)cc1Cl (stereo not shown) [Example 157, 2-((1-(4-chloro-2,5-dimethylphenylsulfonyl)piperidin-2-yl)methoxy)-1-(4-hydroxy-4-(pyridin-3-yl)piperidin-1-yl)ethanone] | 77.1 | 101 |
| CN(CCOCC(=O)N1CCC(O)(c2ccccn2)CC1)S(=O)(=O)c1c(Cl)cccc1Cl [Example 10, 2,6-dichloro-N-{2-[2-(4′-hydroxy-3′,4′,5′,6′-tetrahydro-2′H-[2,4′]bipyridinyl-1′-yl)-2-oxo-ethoxy]-ethyl}-N-methyl-phenylsulfonamide] | 90.3 | 73.6 |
| O=C(COCC1CCN(S(=O)(=O)c2c(Cl)cc(Cl)cc2Cl)C1)N1CCC(O)(c2ccc(Cl)cc2)CC1 (stereo not shown) [Example 272, 1-(4-(4-chlorophenyl)-4-hydroxypiperidin-1-yl)-2-((1-(2,4,6-trichlorophenylsulfonyl)pyrrolidin-3-yl)methoxy)ethanone] | 54.1 | 24.1 |
| O=C(COCC1CCCCN1S(=O)(=O)c1c(Cl)cc(C(F)(F)F)cc1Cl)N1CCC(O)(c2cccc(C(F)(F)F)c2)CC1 (stereo not shown) [Example 164, 2-((1-(2,6-dichloro-4-(trifluoromethyl)phenylsulfonyl)piperidin-2-yl)methoxy)-1-(4-hydroxy-4-(3-(trifluoromethyl)phenyl)piperidin-1-yl)ethanone] | 36.4 | 103 |
| CN(CCOCC(=O)N1CCC(O)(c2ccccn2)CC1)S(=O)(=O)c1c(Cl)cc(Cl)cc1Cl [Example 6, 2,4,6-trichloro-N-{2-[2-(4′-hydroxy-3′,4′,5′,6′-tetrahydro-2′H-[2,4′]bipyridinyl-1′-yl)-2-oxo-ethoxy]-ethyl}-N-methyl-phenylsulfonamide] | 100 | 93.9 |
| Cc1cc(Cl)cc(Cl)c1S(=O)(=O)N(C)CCOCC(=O)N1CCC(O)(Cc2ccccc2)CC1 [Example 106, N-{2-[2-(4-benzyl-4-hydroxy-piperidin-1-yl)-2-oxo-ethoxy]-ethyl}-2,4-dichloro-6,N-dimethyl-phenylsulfonamide] | 97.8 | 96.1 |
| COc1cc(C)c(S(=O)(=O)N2CCCCC2COCC(=O)N2CCC(O)(c3ccccn3)CC2)c(C)c1 (stereo not shown) [Example 138, 1-(4-hydroxy-4-(pyridin-2-yl)piperidin-1-yl)-2-((1-(4-methoxy-2,6-dimethylphenylsulfonyl)piperidin-2-yl)methoxy)ethanone] | 102 | 99.6 |
| O=C(COCC1Cc2ccccc2N1S(=O)(=O)c1ccc(Cl)c(Cl)c1)N1CCC(O)(Cc2ccccc2)CC1 (stereo not shown) [Example 99, 1-(4-benzyl-4-hydroxy-piperidin-1-yl)-2-[1-(3,4-dichloro-phenylsulfonyl)-2,3-dihydro-1H-indol-2-ylmethoxy]-ethanone] | -22.9 | -12.4 |
